According to patent EP4324461A1, “(E)-N-CINAMOYLAMINOALKANOLES WITH MELANOGENESIS INHIBITORY ACTIVITY” (UNIWERSYTET JAGIELLONSKI, priority 2022, dated 2024):

Assays:
Primary melanocytes = experiment: Safety, LDH test in primary melanocytes; type: cell-based; conditions: 48 hours, positive control Triton X-100
Experimental: (§1) In order to test the safety of the compounds, both normal human cells were used: keratinocytes (HaCaT), fibroblasts (BJ), primary melanocytes that occur in the skin, as well as human cancer cells: the hepatocarcinoma line HepG2 and the neuroblastoma line SH-SY5Y, which are considered a model for the assessment of hepatocytotoxicity and neurocytotoxicity. The concentrations of the tested compounds in the range of 250-100 µM were used in the studies. The cell lines used in the research were purchased from the American Type Culture Collection (ATCC) and were cultured in media recommended by the manufacturer with the addition of FBS and antibiotics in an incubator ensuring appropriate culture conditions, i.e. humidity, temperature and CO2 concentration. Cells were seeded into multiwell plates and incubated with the test compounds for 48 hours. After this time, MTT and LDH tests were performed to assess cell viability. The MTT test is based on the ability to transform the substrate: [3-(4,5-dimethyl-2-thiazolyl)-2,5-diphenyl-2H-tetrazolium bromide into a colored product only by living cells. The absorbance at 570 nm, which corresponds to the absorption maximum for the product, is directly proportional to cell viability. The LDH test is based on testing the activity of the enzyme lactate dehydrogenase in the culture medium, which is released from cells as a result of damage to the cell membrane, e.g. as a result of cell death. Triton X-100 was used as a positive control in the test. The determination is colorimetric, the substrate is transformed by the released enzyme into a colored product, an increase in absorbance indicates a larger amount of the released enzyme, and thus confirms greater damage to cell membranes. Tables 7 and 8 present the results obtained, which correspond to the viability of cells incubated with the compounds in relation to the viability of cells constituting a control sample, i.e. incubated with the solvent (DMSO) at the same concentration as in the case of the groups tested in the MTT test or in relation to the results obtained for the Triton X-100 positive control in the LDH test. They indicate that the compounds are safe at the concentrations tested. Table 7. Viability of tested normal human cell lines: keratinocytes (HaCaT), fibroblasts (BJ) and primary melanocytes after incubation with the tested compounds - determination in the MTT test (% of solvent control ± SD) and LDH (percentage of positive control - Triton X-100.

neuroblastoma SH-SY5Y = experiment: Safety, MTT test in SH-SY5Y; type: cell-based; conditions: 48 hours
Experimental: as §1

S. typhimurium TA1537 = experiment: Ames microplate test, TA1537; type: cell-based, Salmonella typhimurium;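 further: reference level is the mean solvent-control yellow wells plus SD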
Experimental: Bacteria were grown overnight in growth medium.
Table 9. Ames microplate test results.

[1] = test system: reconstructed human epidermis containing melanocytes MelanoDerm™ MEL-300-B; experiment: Melanogenesis inhibition in reconstructed human epidermis containing melanocytes (MelanoDerm); type: cell-based; conditions: 14 days; for Melanin content [% control, mean ± SD]: 7 applications; for Viability [% control, mean ± SD]: MTT
Experimental: (§2) The research was carried out on reconstructed human epidermis containing melanocytes MelanoDerm™ MEL-300-B from MatTek (Bratislava, Slovakia). The ratio of keratinocytes to melanocytes in the epidermis used is 10:1. Only medium purchased from the same manufacturer (EPI-100-NMM-113) was used to culture the epidermis during the experiments. Once the epidermis was obtained, it was transferred to 12-well plates containing 5 mL of medium/well. Plates were used to enable proper contact of the lower parts of the inserts with the substrate (so-called hanging-top plate). Solutions of the compounds were prepared immediately before their application. The solutions were applied to the inserts using a positive displacement pipette and then distributed using a sterile glass bulb headed Pasteur pipette. The application was repeated every 48 hours, a total of 7 applications were performed. Before the next application, each insert was rinsed with sterile DPBS and dried with a sterile cotton buds. The application was also accompanied by a change of the medium. […] The epidermis was cultured in an incubator ensuring appropriate humidity, temperature (37 °C) and CO2 concentration (5%).
The experiment was conducted for 14 days. After this time, the inserts were rinsed with DPBS and dried with a cotton swab. For the selected pool of inserts, tissue viability was assessed using the MTT (Thiazolyl Blue Tetrazolium bromide) test, the remaining ones were used to determine the amount of melanin. To assess viability, the inserts were transferred to 24-well plate containing 0.3 mL of DMEM medium with 1 mg/mL MTT and incubated for 3 hours in an incubator. The epidermis was then placed in 2 mL of isopropanol and the resulting formazan was extracted for 2 hours at room temperature. The absorbance of the samples was measured at 570 nm in a microplate reader and correlated with the absorbance of the control by the formula: % Viability = [OD (570 nm) for test compound/OD (570 nm) for control] × 100. To determine the amount of melanin, the inserts were incubated in 5% sodium bicarbonate for 30 min, then dried and placed in 0.5 mL of Solvable™ reagent, which caused complete lysis of the epidermis. After heating at 95 °C, the absorbance of the samples was measured at 405 nm in a microplate reader. On this basis, the reduction in the amount of melanin was calculated in relation to the control sample. The absorbance results were also correlated with a standard curve for synthetic melanin. […] Table 5. Viability and melanin content in the MelanoDerm epidermis after application of the tested samples, calculated on the basis of absorbance measurements.
as §2, with “Only media” for “Only medium”, “cotton bud.” for “cotton buds.”
The experiment was conducted for 14 days. After this time, the inserts were rinsed with DPBS and dried with a cotton bud. […]

Row | Compound | Primary melanocytes LDH (Primary melanocytes; 100 µM) | Primary melanocytes LDH (Primary melanocytes; 150 µM) | Primary melanocytes LDH (Primary melanocytes; 200 µM) | Primary melanocytes LDH (Primary melanocytes; 250 µM) | Neuroblastoma SH-SYSY MTT (neuroblastoma SH-SY5Y; 100 µM) | Neuroblastoma SH-SYSY MTT (neuroblastoma SH-SY5Y; 150 µM) | Neuroblastoma SH-SYSY MTT (neuroblastoma SH-SY5Y; 200 µM) | Neuroblastoma SH-SYSY MTT (neuroblastoma SH-SY5Y; 250 µM) | Increase in the number of yellow wells compared to the reference level (S. typhimurium TA1537; 0.5 mM, +S9) | Increase in the number of yellow wells compared to the reference level (S. typhimurium TA1537; 0.5 mM, without S9) | Increase in the number of yellow wells compared to the reference level (S. typhimurium TA1537; 1.0 mM, +S9) | Increase in the number of yellow wells compared to the reference level (S. typhimurium TA1537; 1.0 mM, without S9) | Increase in the number of yellow wells compared to the reference level (S. typhimurium TA1537; 2.0 mM, +S9) | Increase in the number of yellow wells compared to the reference level (S. typhimurium TA1537; 2.0 mM, without S9) | Melanin content [% control, mean ± SD] ([1]; 1.0% in 50% PEG (10 µL)) [% control] | Viability [% control, mean ± SD] ([1]; 1.0% in 50% PEG (10 µL)) [% control] | Melanin content [% control, mean ± SD] ([1]; 1.0% in 50% PEG (25 µL)) [% control] | Viability [% control, mean ± SD] ([1]; 1.0% in 50% PEG (25 µL)) [% control] | Melanin content [% control, mean ± SD] ([1]; 2.0% in 50% PEG (25 µL)) [% control] | Viability [% control, mean ± SD] ([1]; 2.0% in 50% PEG (25 µL)) [% control]
1 | O=C(/C=C/c1ccc(Cl)cc1)NCCCCCO [Compound A-111, (2E)-3-(4-chlorophenyl)-N-(5-hydroxypentyl)prop-2-enamide] | 3.31 percentage of positive control | 4.95 percentage of positive control | 13.38 percentage of positive control | 18.41 percentage of positive control | 100.14±3.22 % of solvent control | 99.32±3.36 % of solvent control | 100.55±2.31 % of solvent control | 99.93±4.36 % of solvent control | 0.27 | 0.80 | 0.45 | 0.54 | 0.27 | 0.54 | 94.95±3.57 | 101.45±6.45 | 81.23±6.53 | 85.67±7.25 | 67.26±9.18 | 106.64±7.78
2 | O=C(/C=C/c1ccccc1)NCCCCCO [Compound A-133, (2E)-N-(5-hydroxypentyl)-3-phenylprop-2-enamide] | 4.68 percentage of positive control | 7.59 percentage of positive control | 16.71 percentage of positive control | 19.45 percentage of positive control | 101.50±3.33 % of solvent control | 100.75±3.01 % of solvent control | 100.62±5.99 % of solvent control | 100.41±1.87 % of solvent control | 0.18 | 1.07 | 0.36 | 0.54 | 0.27 | 0.54 | 98.62±9.47 | 101.22±6.52 | – | – | – | –
3 | O=C(/C=C/c1ccc(Cl)cc1)NCCCO [H-330/21, (2E)-3-(4-chlorophenyl)-N-(3-hydroxypropyl)prop-2-enamide] | 5.63 percentage of positive control | 13.09 percentage of positive control | 10.91 percentage of positive control | 18.10 percentage of positive control | 99.79±5.34 % of solvent control | 99.86±3.76 % of solvent control | 99.79±3.97 % of solvent control | 99.11±3.66 % of solvent control | – | – | – | – | – | – | – | – | – | – | – | –
4 | Cc1ccc(/C=C/C(=O)NCCCCCO)cc1 [H-415/21, (2E)-N-(5-hydroxypentyl)-3-(4-methylphenyl)prop-2-enamide] | 4.22 percentage of positive control | 6.01 percentage of positive control | 8.34 percentage of positive control | 14.94 percentage of positive control | 100.68±4.63 % of solvent control | 99.32±2.96 % of solvent control | 100.27±3.50 % of solvent control | 101.71±2.38 % of solvent control | – | 0.33 | – | 0.33 | – | 0.00 | – | – | – | – | – | –
5 | O=C(/C=C/c1ccccc1)NCCCCCCO [H-425/21, (E)-N-(6-hydroxyhexyl)cinnamic acid amide] | – | – | – | – | – | – | – | – | 1.33 | 0.09 | 0.00 | 0.18 | 1.00 | 0.82 | 102.98±4.25 | 87.16±6.30 | – | – | – | –
6 | O=C(/C=C/c1ccc(Cl)cc1)NCCO [H-427/21, (2E)-3-(4-chlorophenyl)-N-(2-hydroxyethyl)prop-2-enamide] | 3.93 percentage of positive control | 4.44 percentage of positive control | 4.31 percentage of positive control | 15.01 percentage of positive control | 100.48±3.67 % of solvent control | 100.96±2.72 % of solvent control | 101.30±2.94 % of solvent control | 102.60±9.66 % of solvent control | – | – | – | – | – | – | – | – | – | – | – | –
